This passage reports EC50, IC50 and outcome results from PubChem BioAssay AID179 (DTP/NCI, 2004).

As usually defined, the EC50 is the midpoint of the concentration-response curve. One may read the IC50 as the concentration that inhibits the measured activity by half. Read a high IC50 as weaker potency.

Activity calls are given as the source filed them.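 How the source made its calls: active means compounds giving half or more protection of infected cells from virus-caused growth loss, again on retest; inactive means the rest.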 Where a SMILES comes first, the peptide text is derived from it. [ ]: non-standard residue; d: D form. Ava = NCCCCC(=O)O; Mpa = O=C(O)CCS

This assay concerns CEM cells HIV-1 protection, formazan growth assay. In words: NCI AIDS Antiviral Assay. The note with it: for IC50: measured here: growth of uninfected CEM cells. In outline: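 Human CEM cells, uninfected and HIV-1-infected, received five drug concentrations, and growth was read by soluble formazan assay. Compounds giving at least 50% protection were retested; reproducible 100% protection defined confirmed active.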

In the case of `CN1C2CCC1CC(C)(O)C2` (stereo not given), the EC50 was more than 200 µM and the IC50 was more than 200 µM.
As to `Cn1c(=O)cn[nH]c1=O`, the EC50 is more than 200 µM and the IC50 is more than 200 µM.
On to `CC1(C)COC(c2ccccc2Cl)N1` (stereo not given), for which the result was inactive.
As to `[N-]=[N+]=CC(=O)OCC1SCCCS1`, the EC50 was more than 200 µM and the IC50 is more than 200 µM.
In the case of `CCCN(CCC)/N=C/c1c2c(O)c3c(O)c(C)c4c(c3c1O)C(=O)C(C)(O/C=C/C(OC)C(C)C(OC(C)=O)C(C)C(O)C(C)C(O)C(C)/C=C/C=C(C)C(=O)N2)O4` (stereo not given), the EC50 is more than 200 µM and the IC50 turned out to be 3.47 µM.
The like results for `N#CCc1nc(-c2cc3c(ccc4ccccc43)oc2=O)cs1` were, in that order, more than 200 µM and 178 µM.
The like results for `CC(C)CCCC(C)C1CCC2[C@@H]3CCC4C[C@@H](CCCO)CC[C@]4(C)C3CC[C@]12C` (stereo not given in full) were, in that order, more than 4.37 µM and more than 4.37 µM.
`COc1cccc(N=NN2CCCC2)c1`: the EC50 was more than 200 µM and the IC50 amounted to 91.2 µM.
The like results for `O=C1C(Cl)C(c2ccccc2)N1n1cnc2ccccc2c1=O` (stereo not given) were, in that order, more than 79.4 µM and more than 79.4 µM.
For the molecule `CN(c1ccccc1)c1c(-c2ccccc2)c(=O)oc2c1ccc1occc12`, the outcome was inactive.
Turning to `CC1=C(C#N)c2nc3ccccc3n2C(=O)C1(C)CCO` (stereo not given), the EC50 is more than 200 µM and the IC50 was more than 200 µM.
As for `C/C(=N/N=C(\[O-])c1ccncc1)C(F)(F)F.C/C(=N\N=C(/[O-])c1ccncc1)C(F)(F)F.[Ni+2]`, the EC50 was more than 200 µM and the IC50 was 89.1 µM.
For `O=C(c1ccc([N+](=O)[O-])cc1)N1CCCC1`, the EC50 was more than 200 µM and the IC50 is more than 200 µM.
Regarding `COC1CC(OC)C2OC(c3ccccc3)OCC2O1` (stereo not given), the outcome was inactive.
On to `CCOP(=O)(OCC)C(N)C(C)CC` (stereo not given), for which the EC50 is more than 479 µM and the IC50 was more than 479 µM.
In the case of `CCn1c2ccccc2c2cc(N=C3C(=O)N(C)c4ccccc43)ccc21`, the EC50 was more than 200 µM and the IC50 stood at 10.7 µM.
Consider `CC1CCCC2=C1C(c1ccc(Cl)cc1)n1c(s/c(=C\c3ccc(Cl)cc3)c1=O)=N2` (stereo not given), for which the outcome was inactive.
On to `O=c1[nH]c2nn(-c3ccccc3)cc2c(=O)n1O`, for which the EC50 is more than 200 µM and the IC50 was determined as 3.31 µM.
As for `O=c1[nH]c2ccccc2c(=O)n1/N=C\c1ccccc1O`, the EC50 was more than 200 µM and the IC50 was more than 200 µM.
Turning to `CC(=O)OCC1OC(N2C(c3ccccc3)=CC(c3cccs3)C(C#N)=C2S)C(OC(C)=O)C(OC(C)=O)C1OC(C)=O` (stereo not given), the EC50 was 81.3 µM and the IC50 is more than 200 µM.
Turning to `Cc1cccc(C)c1NC(=S)N/C=C(\C#N)C(N)=O`, the EC50 is more than 200 µM and the IC50 was more than 200 µM.
Turning to `CN(C)CCN1C(=O)C2(C)C3CCC(O3)C2(C)C1=O` (stereo not given), the EC50 was 141 µM and the IC50 is 170 µM.
Consider `O=c1[nH]c2cc(Cl)ccc2nc1/C(=N\O)C(O)c1cccc([N+](=O)[O-])c1` (stereo not given), for which the EC50 was more than 661 µM and the IC50 came out at 646 µM.
The like results for `CC1=C(C)SC(=C2Sc3nc(O)[nH]c(=O)c3S2)S1` were, in that order, more than 200 µM and 145 µM.
Consider `C=C1C(=O)[C@]23C[C@H]1CC[C@H]2[C@@]12CO[C@@H](O)[C@@H]1C(C)(C)[C@@H](O)C[C@@H]2OC3=O`, for which the EC50 is more than 692 µM and the IC50 was determined as 26.3 µM.
For `Cc1cn(C2C=CCCC2)c(=O)[nH]c1=O` (stereo not given) the same measures were more than 871 µM and more than 871 µM.
For `COc1ccc(C2C(Cl)C(=O)N2NC(=O)Cc2ccccc2)cc1OC` (stereo not given) the same measures were more than 95.5 µM and more than 95.5 µM.
As to `CCOC(=O)C1(N)CC1`, the EC50 is more than 200 µM and the IC50 is more than 200 µM.
Consider `Cc1ccc(S(=O)(=O)N(CC(=O)O)c2ccccc2)cc1`, for which the result was inactive.
For `C/C(=N/NC(=O)C[N+](C)(C)C)C(CN(C)C)C(=O)Nc1ccccc1` (stereo not given), the EC50 was more than 13.5 µM and the IC50 was more than 13.5 µM.
In the case of `CCC1=C(C(C)=O)[C@@H]2CCCCC(C(=O)OC)[C@@H]2C1=O` (stereo not given in full), the EC50 is more than 200 µM and the half-maximal inhibitory concentration (IC50) was more than 200 µM.
As to `O=C(CCC(=O)Nc1ccc(C2=NCCN2)cc1)Nc1ccc(C2=NCCN2)cc1`, the EC50 was 95.5 µM and the IC50 turned out to be 141 µM.
For `CC(C)(S)C(N)C(=O)O` (stereo not given) the same measures were more than 1660 µM and more than 1660 µM.
Regarding `CC(=O)C1Cn2c(nc3ccccc32)C[Se]1` (stereo not given), the outcome was inactive.
Consider `O=C(c1ccccc1)C1C(=O)c2ccccc2C1=O`, for which the EC50 was more than 105 µM and the half-inhibitory concentration (IC50) was more than 105 µM.
Consider `COC(=O)CC1(C)[C@H](O)[C@H]2OC(C)(C)O[C@H]2[C@@H]1O` (stereo not given in full), for which the EC50 was more than 955 µM and the IC50 was more than 955 µM.
In the case of `COc1ccc2c(CCNC(=O)/C=C/c3ccccc3)c(C(C)=O)[nH]c2c1[N+](=O)[O-]`, the outcome was inactive.
With `ONC1=Nc2ccccc2C(=S)N2CSCC12` (stereo not given), the EC50 was more than 200 µM and the 50% inhibitory concentration (IC50) was more than 200 µM.
For the molecule `c1coc(-c2cc(-c3cc(-c4ccco4)on3)no2)c1`, the EC50 is more than 933 µM and the IC50 turned out to be 589 µM.
The like results for `COC(=O)c1cc(=O)[nH]c2c1c(=O)n(C)c(=O)n2C` were, in that order, more than 200 µM and more than 200 µM.
Turning to `COC(=O)c1nn(C(=N)c2ccc(Cl)cc2)c2c1CCCCC2`, the EC50 was more than 380 µM and the half-maximal inhibitory concentration (IC50) was more than 380 µM.
Consider `Cn1nc(-c2ccccc2)c(C(=O)/C=C/c2ccccc2)c(N2CCCCC2)c1=O`, for which the EC50 was more than 24 µM and the half-maximal inhibitory concentration (IC50) is more than 24 µM.
In the case of `Nc1nc(Cl)cc(NCC2(O)CC(CO)C2)n1` (stereo not given), the EC50 was more than 200 µM and the IC50 was more than 200 µM.
In the case of `C[P+](Cc1ccccc1)(c1ccccc1)c1ccccc1`, the EC50 is 0.0631 µM and the IC50 is 14.5 µM.
For `COC(=O)C1(Cc2ccccc2)Cc2c(C)ccc(C)c2C1=O` (stereo not given), the EC50 is more than 200 µM and the IC50 was more than 200 µM.
In the case of `Cc1ccc(S(=O)(=O)N2CCCN(S(=O)(=O)c3ccc(C)cc3)CC2)cc1`, the EC50 is more than 45.7 µM and the IC50 was more than 45.7 µM.
Take `CN(C)c1ccc(/C=C2\CCOC2=O)cc1`: the EC50 is more than 17.4 µM and the IC50 is more than 17.4 µM.
On to `C=CC1CN2CCC1CC2C(O)c1ccnc2ccc(OC)cc12` (stereo not given), for which the EC50 is more than 200 µM and the IC50 is more than 100 µM.
The like results for `COCn1c(C(=O)c2ccccc2)c(C)c(=O)[nH]c1=O` were, in that order, 70.8 µM and more than 200 µM.
`CCCCCCCCCCNP(=S)(NCCCCCCCCCC)c1ccccc1`: the result was inactive.
In the case of `NC(P(=O)(O)O)P(=O)(O)O`, the EC50 is more than 200 µM and the IC50 is more than 200 µM.
For `C/C(=C1/N=C(c2cc([N+](=O)[O-])ccc2Cl)N(c2ccc(Br)cc2)C1=O)c1ccc(N(CCC#N)CCC#N)cc1C`, the EC50 is more than 11.5 µM and the IC50 is more than 11.5 µM.
Take `NC(=O)C(=CNC(=S)Nc1ccc(S(=O)(=O)Nc2ccccn2)cc1)C(N)=O`: the EC50 is more than 200 µM and the IC50 is more than 200 µM.
As to `CCCCNC(=O)C1=C(C)NC(C)=C(C(=O)NCCCC)C1`, the EC50 was more than 200 µM and the IC50 is more than 200 µM.
For `CC(C)CCC[C@@H](C)C1CCC2[C@@H]3CC=C4C[C@@H](OC(=O)CCC(=O)NCC[N+](C)(C)CCCS(=O)(=O)[O-])CC[C@]4(C)C3CC[C@@]21C` (stereo not given in full), the outcome was inactive.
For the molecule `CC(C)(C)N1NC1C1NN1C(C)(C)C` (stereo not given), the EC50 was more than 200 µM and the IC50 is more than 200 µM.
For the molecule `CCNc1ncc2nc(CC(=O)OC)c(=O)n(CC)c2n1`, the EC50 is more than 200 µM and the IC50 was more than 200 µM.
As for `CC1CCCC(C(O)CC2CC(=O)NC(=O)C2)C1O` (stereo not given), the EC50 is more than 200 µM and the IC50 is more than 200 µM.
On to `CC(C)n1c(=O)c2nn3c(=O)n(C(C)C)c(=O)c3nn2c1=O`, for which the EC50 is more than 200 µM and the IC50 was more than 200 µM.
On to `COC1/C=C/OC2(C)Oc3c(C)c(O)c4c(O)c(c(/C=N/OC/C=C(\C)CCC=C(C)C)c(O)c4c3C2=O)NC(=O)C(C)=C/C=C/C(C)C(O)C(C)C(O)C(C)C(OC(C)=O)C1C` (stereo not given), for which the EC50 is more than 200 µM and the IC50 came to 4.47 µM.
For `Cc1ncc[pH]1` (stereo not given) the same measures were more than 138 µM and more than 138 µM.
Regarding `C1CN2CCC1C1(C2)SSC2(CN3CCC2CC3)S1` (stereo not given), the EC50 was more than 200 µM and the IC50 was more than 200 µM.
As to `CCN(CC)CC(=O)Nc1ccc(Cl)cc1Cc1ccccc1`, the EC50 was more than 200 µM and the IC50 worked out at 91.2 µM.
The like results for `O=S1(=O)CCc2ccccc2C(Cl)C1` (stereo not given) were, in that order, more than 407 µM and more than 407 µM.
Regarding `BrCc1ccccc1C[P+](c1ccccc1)(c1ccccc1)c1ccccc1`, the EC50 is more than 200 µM and the half-maximal inhibitory concentration (IC50) is 2.45 µM.
For `CC(=O)OCC1OC(n2c3c(c(-c4cccc5ccccc45)c(C#N)c2=S)CCCC3)C(OC(C)=O)C(OC(C)=O)C1OC(C)=O` (stereo not given) the same measures were more than 200 µM and 47.9 µM.
Turning to `O=C(O)CSc1ccc2c3c(cccc13)C(=O)c1ccccc1-2`, the EC50 was more than 200 µM and the IC50 stood at 3.09 µM.
The like results for `Cc1ccc(CC2(C(=O)O)Cc3ccc(C)cc3C2)cc1` (stereo not given) were, in that order, more than 200 µM and 57.5 µM.
The like results for `CS(=O)(=O)c1cnnc2ccccc12` were, in that order, more than 513 µM and more than 513 µM.
The like results for `[C-]#[N+][C@@]1(C)CCC2C(C)CC[C@@H](C(=C)C)[C@@]23C=C(C)CC[C@H]31` (stereo not given in full) were, in that order, more than 200 µM and 138 µM.
For `CCOC(=O)Nc1ccc2nc(N3CCCCCC3)sc2c1`, the EC50 was more than 58.9 µM and the IC50 turned out to be 1.02 µM.
The like results for `CC(NC(=O)CCS)C(=O)NC(C)C(=O)NC(Cc1c[nH]c2ccccc12)C(=O)NC(Cc1c[nH]cn1)C(=O)NC(CO)C(=O)NC(Cc1c[nH]c2ccccc12)C(=O)NCCCCC(=O)NC(C)C(=O)NC(CCC(N)=O)C(=O)NC(CCCCN)C(=O)NC(C)C(=O)NC(CCCNC(=N)N)C(=O)NC(CCCCN)C(N)=O` (stereo not given) ([Mpa]AAWHSW[Ava]AQKARK-NH2; configuration not given here) were, in that order, more than 20 µM and more than 20 µM.
